Laboratory results from the OligoGym collection.
HELM strings list units from the 5' end as sugar, base in round brackets, then linkage (d deoxyribose, r ribose, m 2'-O-methyl, p phosphodiester). Strings are as the collection lists them, not checked against the first reports. ss, as = sense and antisense strand; [fl2r] = 2'-fluoro

Settings: siRNA
Also: test system not given here.

Substance	target mRNA knockdown
RNA1{r(A)p.r(A)p.r(A)p.r(C)p.r(C)p.r(C)p.r(C)p.[fl2r](U)p.r(A)p.r(G)p.r(A)p.r(G)p.r(G)p.[fl2r](G)p.r(C)p.r(A)p.r(A)p.r(G)p.r(U)p.r(T)p.r(T)}|RNA2{r(A)p.r(C)p.r(U)p.[fl2r](U)p.r(G)p.r(C)p.r(C)p.r(C)p.r(U)p.r(C)p.[fl2r](U)p.r(A)p.r(G)p.r(G)p.r(G)p.r(G)p.r(U)p.r(U)p.r(U)p.r(T)p.r(T)}$$$RNA1{StrandType:ss}|RNA2{StrandType:as}$	82%
RNA1{r(A)p.r(A)p.r(A)p.r(C)p.r(C)p.r(C)p.r(C)p.[fl2r](U)p.r(A)p.r(G)p.r(A)p.r(G)p.r(G)p.r(G)p.[fl2r](C)p.r(A)p.r(A)p.r(G)p.r(U)p.r(T)p.r(T)}|RNA2{r(A)p.r(C)p.r(U)p.r(U)p.r(G)p.r(C)p.r(C)p.r(C)p.r(U)p.r(C)p.r(U)p.r(A)p.r(G)p.r(G)p.r(G)p.r(G)p.r(U)p.r(U)p.r(U)p.r(T)p.r(T)}$$$RNA1{StrandType:ss}|RNA2{StrandType:as}$	83%
RNA1{r(A)p.r(A)p.r(A)p.r(C)p.r(C)p.r(C)p.r(C)p.m(U)p.r(A)p.r(G)p.r(A)p.r(G)p.r(G)p.r(G)p.m(C)p.r(A)p.r(A)p.r(G)p.r(U)p.r(T)p.r(T)}|RNA2{r(A)p.r(C)p.r(U)p.m(U)p.r(G)p.r(C)p.r(C)p.r(C)p.r(U)p.r(C)p.m(U)p.r(A)p.r(G)p.r(G)p.r(G)p.r(G)p.r(U)p.r(U)p.r(U)p.r(T)p.r(T)}$$$RNA1{StrandType:ss}|RNA2{StrandType:as}$	78%
RNA1{r(A)p.r(A)p.r(A)p.r(C)p.r(C)p.r(C)p.r(C)p.m(U)p.r(A)p.r(G)p.r(A)p.r(G)p.r(G)p.r(G)p.r(C)p.r(A)p.r(A)p.r(G)p.r(U)p.r(T)p.r(T)}|RNA2{r(A)p.r(C)p.r(U)p.r(U)p.r(G)p.r(C)p.r(C)p.r(C)p.r(U)p.r(C)p.m(U)p.r(A)p.r(G)p.r(G)p.r(G)p.r(G)p.r(U)p.r(U)p.r(U)p.r(T)p.r(T)}$$$RNA1{StrandType:ss}|RNA2{StrandType:as}$	75%
RNA1{r(A)p.r(A)p.r(A)p.r(C)p.r(C)p.r(C)p.r(C)p.r(U)p.r(A)p.r(G)p.r(A)p.r(G)p.r(G)p.r(G)p.r(C)p.r(A)p.r(A)p.r(G)p.r(U)p.r(T)p.r(T)}|RNA2{[fl2r](A)p.r(C)p.[fl2r](U)p.r(U)p.[fl2r](G)p.r(C)p.[fl2r](C)p.r(C)p.[fl2r](U)p.r(C)p.[fl2r](U)p.r(A)p.[fl2r](G)p.r(G)p.[fl2r](G)p.r(G)p.[fl2r](U)p.r(U)p.[fl2r](U)p.r(T)p.r(T)}$$$RNA1{StrandType:ss}|RNA2{StrandType:as}$	37%
RNA1{r(A)p.r(A)p.r(A)p.r(C)p.r(C)p.r(U)p.m(C)p.r(A)p.r(G)p.r(C)p.r(C)p.r(C)p.m(U)p.r(A)p.r(A)p.r(C)p.r(G)p.r(G)p.r(U)p.r(T)p.r(T)}|RNA2{r(A)p.r(C)p.r(C)p.r(G)p.r(U)p.m(U)p.r(A)p.r(G)p.r(G)p.r(G)p.r(C)p.m(U)p.r(G)p.r(A)p.r(G)p.r(G)p.r(U)p.r(U)p.r(U)p.r(T)p.r(T)}$$$RNA1{StrandType:ss}|RNA2{StrandType:as}$	70%
RNA1{r(A)p.r(A)p.r(A)p.r(C)p.r(C)p.r(U)p.r(C)p.m(A)p.r(G)p.r(C)p.r(C)p.r(C)p.r(U)p.r(A)p.r(A)p.r(C)p.r(G)p.r(G)p.r(U)p.r(T)p.r(T)}|RNA2{r(A)p.r(C)p.r(C)p.r(G)p.r(U)p.m(U)p.r(A)p.r(G)p.r(G)p.r(G)p.r(C)p.r(U)p.r(G)p.r(A)p.r(G)p.r(G)p.r(U)p.r(U)p.r(U)p.r(T)p.r(T)}$$$RNA1{StrandType:ss}|RNA2{StrandType:as}$	70%
RNA1{r(A)p.r(A)p.r(A)p.r(C)p.r(C)p.r(U)p.r(C)p.r(A)p.r(G)p.r(C)p.r(C)p.r(C)p.m(U)p.m(A)p.r(A)p.r(C)p.r(G)p.r(G)p.r(U)p.r(T)p.r(T)}|RNA2{r(A)p.r(C)p.r(C)p.r(G)p.r(U)p.m(U)p.r(A)p.r(G)p.r(G)p.r(G)p.r(C)p.r(U)p.r(G)p.r(A)p.r(G)p.r(G)p.r(U)p.r(U)p.r(U)p.r(T)p.r(T)}$$$RNA1{StrandType:ss}|RNA2{StrandType:as}$	69%
RNA1{r(A)p.r(A)p.r(A)p.r(C)p.r(G)p.m(U)p.r(G)p.r(A)p.r(C)p.r(U)p.r(U)p.m(U)p.r(G)p.r(G)p.r(U)p.r(U)p.r(C)p.m(C)p.r(U)p.r(T)p.r(T)}|RNA2{r(A)p.r(G)p.r(G)p.r(A)p.r(A)p.r(C)p.m(C)p.r(A)p.r(A)p.r(A)p.r(G)p.r(U)p.m(C)p.r(A)p.r(C)p.r(G)p.r(U)p.r(U)p.r(U)p.r(T)p.r(T)}$$$RNA1{StrandType:ss}|RNA2{StrandType:as}$	82%
RNA1{r(A)p.r(A)p.r(A)p.r(C)p.r(G)p.r(A)p.m(G)p.r(A)p.r(G)p.r(A)p.r(G)p.r(C)p.r(C)p.m(C)p.r(A)p.r(C)p.r(C)p.r(U)p.r(U)p.r(T)p.r(T)}|RNA2{r(A)p.r(A)p.r(G)p.r(G)p.m(U)p.m(G)p.r(G)p.r(G)p.r(C)p.r(U)p.r(C)p.r(U)p.r(C)p.r(U)p.r(C)p.r(G)p.r(U)p.r(U)p.r(U)p.r(T)p.r(T)}$$$RNA1{StrandType:ss}|RNA2{StrandType:as}$	56%
RNA1{r(A)p.r(A)p.r(A)p.r(C)p.r(G)p.r(A)p.r(G)p.r(A)p.r(G)p.r(A)p.r(G)p.r(C)p.r(C)p.r(C)p.r(A)p.r(C)p.r(C)p.r(U)p.r(U)p.r(T)p.r(T)}|RNA2{r(A)p.r(A)p.r(G)p.r(G)p.m(U)p.r(G)p.r(G)p.r(G)p.r(C)p.r(U)p.r(C)p.r(U)p.r(C)p.r(U)p.r(C)p.r(G)p.r(U)p.r(U)p.r(U)p.r(T)p.r(T)}$$$RNA1{StrandType:ss}|RNA2{StrandType:as}$	57%
RNA1{r(A)p.r(A)p.r(A)p.r(C)p.r(G)p.r(U)p.r(G)p.r(A)p.r(C)p.r(U)p.r(U)p.m(U)p.r(G)p.r(G)p.r(U)p.r(U)p.r(C)p.r(C)p.r(U)p.r(T)p.r(T)}|RNA2{r(A)p.r(G)p.r(G)p.r(A)p.r(A)p.r(C)p.r(C)p.r(A)p.r(A)p.r(A)p.r(G)p.r(U)p.m(C)p.r(A)p.r(C)p.r(G)p.r(U)p.r(U)p.r(U)p.r(T)p.r(T)}$$$RNA1{StrandType:ss}|RNA2{StrandType:as}$	83%
RNA1{r(A)p.r(A)p.r(A)p.r(G)p.r(C)p.r(G)p.r(G)p.m(U)p.m(G)p.r(G)p.r(A)p.r(U)p.m(C)p.r(A)p.r(G)p.r(C)p.r(U)p.r(C)p.r(U)p.r(T)p.r(T)}|RNA2{r(A)p.r(G)p.r(A)p.r(G)p.r(C)p.m(U)p.r(G)p.r(A)p.r(U)p.r(C)p.m(C)p.m(A)p.r(C)p.r(C)p.r(G)p.r(C)p.r(U)p.r(U)p.r(U)p.r(T)p.r(T)}$$$RNA1{StrandType:ss}|RNA2{StrandType:as}$	63%
RNA1{r(A)p.r(A)p.r(A)p.r(G)p.r(C)p.r(G)p.r(G)p.r(U)p.r(G)p.r(G)p.r(A)p.r(U)p.r(C)p.r(A)p.r(G)p.r(C)p.r(U)p.r(C)p.r(U)p.r(T)p.r(T)}|RNA2{r(A)p.r(G)p.r(A)p.r(G)p.r(C)p.m(U)p.r(G)p.r(A)p.r(U)p.r(C)p.m(C)p.r(A)p.r(C)p.r(C)p.r(G)p.r(C)p.r(U)p.r(U)p.r(U)p.r(T)p.r(T)}$$$RNA1{StrandType:ss}|RNA2{StrandType:as}$	67%
